# Laboratory results from patent US9937171B2, “Methods of blocking the CXCR-4/SDF-1 signaling pathway with inhibitors of bruton's tyrosine kinase” (Acerta Pharma B.V., priority 2014, dated 2018).
# Key:
# [1] = tested on: p-Btk(Y223) in CD20+ B cells; assay: Phosphoflow cytometry of p-Btk(Y223) in CD20+ B cell gate of healthy PBMCs; format: cell-based; settings: 2 hours incubation, anti-IgM or anti-IgM+SDF-1 for 5 minutes, low nM concentrations, FIG. 1
# Procedure: (§1) Cells were then analyzed by phosphoflow cytometry and p-Btk(Y223) was measured in the CD20+ B cell gate and the CD14^+ monocyte gate separately. In B cells, BTK phosphorylation in anti-IgM stimulated B cells is increased with the addition of SDF-1 (CXCL-12) in the “No drug” condition. […] In monocytes, BTK phosphorylation is only observed when SDF-1 is present.
# [2] = tested on: p-Btk(Y223) in CD14+ monocytes; assay: Phosphoflow cytometry of p-Btk(Y223) in CD14+ monocyte gate of healthy PBMCs; format: cell-based; settings: SDF-1 stimulation, FIG. 2
# Procedure: as §1
# [3] = tested on: CXCR4 surface expression in B-CLL cells; assay: CXCR4 surface expression in B-CLL cells of CLL patients after administration; format: in vivo, human; settings: CLL patients with 17p deletion, blood 4, 24, 48 hours after day 3 dose
# Procedure: Drug was given for 3 days. Blood was drawn predose, and then 4, 24, and 48 hours after the day 3 dose.
# RANK MDA-MB231 = RANK MDA-MB231 mouse experiment (bone metastases, bioluminescence imaging); format: in vivo; settings: ~10 and ~50 mg/kg/day PO, 2 weeks of treatment, FIG. 9
# From the text: FIG. 9 illustrates the results of a RANK MDA-MB231 mouse experiment. […] The primary endpoint was bioluminescence imaging (weekly). The secondary endpoints were serum CTx (bone resorption) and serum P1NP (bone formation).
smiles,measurement,setting,value
"CC#CC(=O)N1CCC[C@H]1c1nc(-c2ccc(C(=O)Nc3ccccn3)cc2)c2c(N)nccn12 [Formula (II), (S)-4-(8-amino-3-(1-(but-2-ynoyl)pyrrolidin-2-yl)imidazo[1,5-a]pyrazin-1-yl)-N-(pyridin-2-yl)benzamide]","BTK phosphorylation, p-Btk(Y223), in B cells",[1],inhibited
same,SDF-1/CXCR4 signaling (SDF-1 induced p-Btk) in monocytes,[2],inhibits
same,CXCR4 surface expression in B-CLL cells compared to predose,"[3]; 100 mg BID for 3 days, FIG. 3",reduced
same,CXCR4 surface expression in B-CLL cells compared to predose,"[3]; 200 mg QD for 3 days, FIG. 4",reduced
same,Bone metastases (bioluminescence imaging),RANK MDA-MB231,dose-response reduction
